Results: publication PMC8620715, “Biological Activity of Triazolopyrimidine Copper(II) Complexes Modulated by an Auxiliary N-N-Chelating Heterocycle Ligands” (Molecules, 2021)
Where two headings read alike, the source gives them in different places.

What was measured:
[1] = system: BJ cells; experiment: Cell morphology by fluorescence microscopy (phalloidin staining), BJ cells; format: cell-based, human; settings: 24 h
Procedure: The morphological changes induced by the treatment of the BJ and B16 cell lines with the tested compounds at two different concentrations (2.5 and 10 µg/mL) applied for 24 h were investigated by fluorescence microscopy.
According to the manufacturer protocol, the cytoskeleton actin filaments of BJ and B16 cells were stained with phalloidin-FITC (Sigma-Aldrich, St. Louis, MO, USA). Briefly, cells were washed with PBS (5 min, 3 times), fixed for 5 min with 3% paraformaldehyde, washed three times with PBS, permeabilized with 0.1% Triton X-100 in PBS for 15 min, washed three times with PBS, stained with 20 μg/mL phalloidin-FITC at room temperature for 1 h and rewashed three times with PBS. The cell nucleus was stained with 8 μM of Hoechst 33342 solution for 10 min, washed three times with PBS, and finally, mounted and sealed on glass slides with FluorSave™ Reagent (Merck Millipore, Germany). The fluorescence images were acquired using an Andor DSD2 Confocal Unit (Andor, Ireland), mounted on an epifluorescence microscope, Olympus BX-51 (Olympus, Germany), equipped with a 40x and 100x objective and an appropriate DAPI/Hoechst filter cube (excitation filter 390/40 […], dichroic mirror 405 nm and emission filter 452/45 nm) and GFP/FITC filter cube (excitation filter 466/40 nm, dichroic mirror 488 nm and emission filter 525/54 nm).

[2] = system: B16 cells; experiment: Lactate dehydrogenase (LDH) release assay, B16 cells; format: cell-based, mouse
Procedure: (§1) Membrane integrity after peptide treatment was assessed based on LDH release using a CytoTox 96 Non-Radioactive Cytotoxicity Assay (Promega), as previously described. […] Maximal LDH release was obtained by complete cell lysis induced by using 1% of Triton X-100. The absorption resulting from LDH activity was measured in a microplate reader Mithras 940 (Berthold) at 490 nm, and the % LDH was calculated as: [(corrected absorbance of the LDH released in treated cells)/(corrected absorbance of the total LDH released)] * 100%.

[3] = system: BJ cells; experiment: Lactate dehydrogenase (LDH) release assay, BJ cells; format: cell-based, human
Procedure: as §1

[4] = system: λ-DNA/EB adduct; experiment: Quenching of fluorescence of λ-DNA/ethidium bromide adduct; format: binding, bacteriophage lambda; settings: λ-DNA pre-treated with EB, pH 8
Procedure: The binding of complexes (1) and (2) to DNA was assayed by monitoring the quenching of fluorescence emitted by λ-DNA/ethidium bromide (EB) adduct (λexcit = 510 nm, maximum emission at λem = 601 nm) in the presence of different concentrations of the tested compounds [68, 69]. The fluorescence spectra were recorded in the range of 550–750 nm using a Thermo Fischer Scientific Varioskan Flash spectral scanning multimode reader (Vantaa, Finland). The spectra were recorded in suitable plates using 5 nm excitation and emission slits for all measurements.
The binding of compounds to λ-DNA was assayed by monitoring the quenching of fluorescence emitted by λ-DNA/ethidium bromide (EB) adduct (λexcit = 510, maximum emission at λem = 601). The λ-DNA solution was added to the EB solution, prepared in the same buffer, then increasing concentrations of compounds were added to EB-DNA [52, 70]. The fluorescence spectra were recorded in the range of 550–750 nm using a Thermo Fischer Scientific Varioskan Flash spectral scanning multimode reader (Vantaa, Finland). The spectra were recorded in suitable plates using 5 nm excitation and emission slits for all measurements.

[5] = system: B16 murine melanoma cell line; experiment: MTT cell viability assay, B16 melanoma cells; format: cell-based, mouse; settings: for TI (therapeutic index): BJ vs B16, where no toxicity at highest concentration, a value two times higher was used
Procedure: Human fibroblast cells (BJ—ATCC CRL-2522, USA) were grown in minimal essential medium (MEM) supplemented with 2 mM L-Glutamine, 10% fetal calf serum (FCS), 100 units/mL of penicillin, and 100 µg/mL of streptomycin at 37 °C in a humidified incubator under an atmosphere containing 5% CO2. Mouse melanoma cells (B16—ATCC CRL—6475, USA) were grown in DMEM (Dulbecco’s Modified Eagle Medium) supplemented with similar reagents as MEM. All cell cultivation media and reagents were purchased from Biochrom AG (Berlin, Germany) and Sigma-Aldrich (Darmstadt, Germany).
Cell viability was evaluated using 3-(4,5-dimethylthiazol-2-yl)-2,5-diphenyltetrazolium bromide (MTT) assay as described previously. First, the cells were seeded in 96-well plates (20000 cells/well) and cultured for 24 h in medium. […] The negative control was represented by cells cultivated in a medium without the investigated compounds. Following incubation, the medium was changed, and the MTT solution was added to each well to a final concentration of 1 mg/mL and incubated for an additional 4 h, at 37 °C. Finally, the medium was collected, and DMSO was used to dissolve the insoluble formazan product. The absorbance of the samples was recorded at 570 nm using a plate reader Mithras 940 (Berthold). The data were corrected for the background, and the percentage of viable cells was obtained using the equation:Cell viability = [(A570 of treated cells)/(A570 of untreated cells)] × 100%(1)
The half-maximal inhibitory concentration (IC50) was determined by fitting the data with a sigmoidal logistical equation using the software Origin 8.1 (Microcal Inc., Los Angeles, CA, USA).

[6] = system: S. aureus 25923; experiment: Biofilm formation on polystyrene (crystal violet), MBEC; format: cell-based, Staphylococcus aureus; settings: S. aureus 25923, biofilm
Procedure: (§2) The antibacterial assays were carried out using two Gram-negative (Escherichia coli ATCC 25922, Pseudomonas aeruginosa ATCC 27853) and two Gram-positive (Staphylococcus aureus ATCC 25923, MRSA (meticillin-Resistant S. aureus) 388 (ATCC, American Type Culture Collection) bacteria.
(§3) The method for assessment of biofilm formation on polystyrene microtiter plates was based on previously published protocols. The absorbance at 490 nm was measured with an Apollo LB 911ELISA (Berthold Technologies GmbH & Co. KG, Waltham, MA, USA) reader. The minimal biofilm-eradication concentration (MBEC) was defined as the lowest concentration of antibiotics required to eradicate the biofilm. All experiments were performed in triplicate.

[7] = system: MRSA 388; experiment: as above; format: cell-based, Staphylococcus aureus; settings: MRSA 388, biofilm
Procedure: as §2, §3

Structure (SMILES)	morphological changes of BJ cells ([1]; 2.5 and 10 µg/mL)	membrane integrity (LDH release) ([2]; B16, 24 h and 48 h)	membrane integrity (LDH release) ([3]; 24 h and 48 h)	fluorescence of λ-DNA/EB adduct on adding complex [4]	TI (therapeutic index) ([5]; 24 h)	effect on viability of B16 cells ([5]; 24 h and 48 h)	TI (therapeutic index) ([5]; 48 h)	IC50 ([5]; B16, 24 h) [µg/mL]	IC50 ([5]; B16, 24 h, read-out: IC50) [µM]	IC50 ([5]; B16, 48 h) [µg/mL]	IC50 ([5]; B16, 48 h, read-out: IC50) [µM]	MBEC [6] [mM]	MBEC [7] [mM]	morphological changes of BJ cells ([1]; 10 μg/mL (11.05 µM))	LDH release ([2]; B16, 24 h) [%]	LDH release ([2]; B16, 48 h) [%]	membrane integrity (LDH release) ([3]; 24 h)	LDH release ([3]; 48 h)	B16 cell viability decreased to ([5]; B16) [%]
Cc1cc(C)n2ncnc2n1.Cc1cc(C)n2ncnc2n1.Cc1cc(C)n2ncnc2n1.O.[Cu+2].[O-][Cl+3]([O-])([O-])[O-].[O-][Cl+3]([O-])([O-])[O-].c1ccc(-c2ccccn2)nc1 [Complex (1), [Cu(bpy)(dmtp)2(OH2)](ClO4)2·dmtp]	no effect was observed	did not affect the membrane integrity	did not affect the membrane integrity	fluorescence intensity decreased	8.68	reduced the viability of B16 cells	12.82	5.76	6.5	3.90	4.42	0.18	0.35						
Cc1cc(C)n2ncnc2n1.Cc1cc(C)n2ncnc2n1.Cc1cc(C)n2ncnc2n1.O.[Cu+2].[O-][Cl+3]([O-])([O-])[O-].[O-][Cl+3]([O-])([O-])[O-].c1cnc2c(c1)ccc1cccnc12 [Complex (2), [Cu(phen)(dmtp)2(OH2)](ClO4)2·dmtp]				fluorescence intensity decreased	1.98		1.08	6.88	7.6	4.15	4.58	0.04	0.04	affected the cellular morphology	60	100	not affected	around 20%	5
